Calls of active or inactive are those of the source. The calls are words filed in the database; no cut-off is given here.

Assay [1] relates to Escherichia coli. Nature of the assay: Inhibition of Escherichia coli DNA methyltransferase at 15 uM after 30 mins.
The test system of assay [2] is ER1727. Nature of the assay: Inhibition of M.HhaI DNA methyltransferase expressed in ER1727 cells at 15 uM after 30 mins. It is filed as cell-based. The conditions noted are these: Haemophilus haemolyticus.
The next assay concerns Haemophilus haemolyticus. Nature of the assay: Activation of M.HhaI DNA methyltransferase upto 16 uM.
Assay [3] concerns the target T1, DNA adenine methylase (Escherichia coli K-12) (UniProt P0AEE8).
T1 sequence (whole entry): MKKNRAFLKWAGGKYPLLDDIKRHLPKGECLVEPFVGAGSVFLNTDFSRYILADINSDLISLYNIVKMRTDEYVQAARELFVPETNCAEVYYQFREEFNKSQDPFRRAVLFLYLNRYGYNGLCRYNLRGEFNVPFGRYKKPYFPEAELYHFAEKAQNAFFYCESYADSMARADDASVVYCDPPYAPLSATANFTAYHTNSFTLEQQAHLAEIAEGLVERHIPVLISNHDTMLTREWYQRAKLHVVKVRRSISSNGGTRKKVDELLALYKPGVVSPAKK
Nature of the assay: Inhibition of Escherichia coli DNA adenine methyltransferase at 15 uM after 30 mins.

Assay [4] relates to Escherichia coli. Briefly: Activation of Escherichia coli DNA methyltransferase upto 20 uM.
Assay [5] deals with Escherichia coli. Nature of the assay: Inhibition of Escherichia coli DNA methyltransferase assessed as fluorescence quenching measured.
Assay [6] has as its system Escherichia coli. Nature of the assay: Inhibition of Escherichia coli DNA methyltransferase after 30 mins.
Assay [7] is described as follows: Inhibition of Escherichia coli DNA methyltransferase measured by secondary plot.
The subject of assay [8] is ER1727. Nature of the assay: Inhibition of M.HhaI DNA methyltransferase expressed in ER1727 cells after 30 mins. The assay is classed as cell-based. The conditions noted are these: Haemophilus haemolyticus.
Assay [9] is described as follows: Inhibition of Escherichia coli DNA methyltransferase measured by dixon plot.

With `C=C=CSC[C@H]1O[C@@H](n2cnc3c(N)ncnc32)[C@H](O)[C@@H]1O`, the result in the assay with Escherichia coli [1] and with ER1727 [2] was inactive.

`C#CCSC[C@H]1O[C@@H](n2cnc3c(N)ncnc32)[C@H](O)[C@@H]1O`: the result in the assay on Escherichia coli [1] and in the assay with ER1727 [2] was inactive.

Regarding `CSC[C@H]1O[C@@H](n2cnc3c(N)ncnc32)[C@H](O)[C@@H]1O`, the result in the assay on Escherichia coli [1] and in the assay on ER1727 [2] was inactive.

As to `Nc1cccc2c1ncn2[C@@H]1O[C@H](CSCCC(=O)O)[C@@H](O)[C@H]1O`, the outcome (in the assay on Haemophilus haemolyticus; in assay [3]; in the assay on Escherichia coli [4]) was Active. The Activity in the assay on Escherichia coli [5] turned out to be 5.66 µM.

As for `O=[N+]([O-])c1cccc2c1ncn2[C@@H]1O[C@H](CO)[C@@H](O)[C@H]1O`, the outcome in the assay on Escherichia coli [1] and with ER1727 [2] was inactive.

With `CC#CSC[C@H]1O[C@@H](n2cnc3c(N)ncnc32)[C@H](O)[C@@H]1O`, the outcome with Escherichia coli [1] and in the assay on ER1727 [2] was inactive.

As to `NC(=O)CCSC[C@H]1O[C@@H](n2cnc3c(N)ncnc32)[C@H](O)[C@@H]1O`, the result in the assay with Escherichia coli [1] and in the assay on ER1727 [2] was inactive.

Consider `Nc1ncnc2c1ncn2[C@@H]1O[C@H](CCl)[C@@H](O)[C@H]1O`, for which the outcome with Escherichia coli [1] and in the assay on ER1727 [2] was inactive.

As to `CCOC(=O)CCSC[C@H]1O[C@@H](n2cnc3c(N)ncnc32)[C@H](O)[C@@H]1O`, the result in the assay with Escherichia coli [1], in the assay with Escherichia coli [5] and with ER1727 [2] was inactive.

For the molecule `C=CCSC[C@H]1O[C@@H](n2cnc3c([N+](=O)[O-])cccc32)[C@H](O)[C@@H]1O`, the result in the assay on Escherichia coli [1] and in the assay with ER1727 [2] was inactive.

On to `Nc1ncnc2c1ncn2[C@@H]1O[C@H](CSCC[C@H](N)C(=O)O)[C@@H](O)[C@H]1O`, for which the result in the assay on Escherichia coli [1] and in the assay on ER1727 [2] was Active.

Take `Nc1ncnc2c1ncn2[C@@H]1O[C@H](CSCCC(=O)O)[C@@H](O)[C@H]1O`: the Activity entry is “Dose-dependent effect” with Escherichia coli [6], “Dose-dependent effect” in the assay with ER1727 [8] and 22 µM with Escherichia coli [5]. Also, in assay [7], the Ki amounted to 5 µM. Moreover, in assay [3], the result was Active. This molecule displayed an IC50 in [9] of 5 µM.

Usually Ki stands for a measure of affinity in units of concentration, obtained from inhibition or displacement. The low end stands for tighter binding, the high end for weaker binding. Usually IC50 stands for the concentration at which inhibition is half-maximal.
